# The source made the active and inactive calls. How the calls were made is not given here.
# Tested on: rodent carcinogenicity bioassays, tumor incidence
# Test: CCRIS carcinogenicity studies
# In short: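 Archive of carcinogenicity, mutagenicity, tumor promotion and tumor inhibition results drawn from journals, NCI reports and other sources, expert-reviewed; covers 1985-2011 and is no longer updated.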
smiles,measurement,setting,value
Cn1cc(OCC(O)CNC(C)(C)C)c2ccccc2c1=O (stereo not drawn),carcinogen call,"Species: MOUSE, Strain/Sex: CD-1/FEMALE, Route: GAVAGE, Dose: 0, 3, 10, 30 MG/KG/D FOR 80 WK IN WATER (STUDY DURATION: 80 WK), Dose: 0, 3, 10, 30 MG/KG/D FOR 80 WK IN WATER (STUDY DURATION: 80 WK)",inactive; negative
same,carcinogen call,"Species: MOUSE, Strain/Sex: CD-1/MALE, Route: GAVAGE, Dose: 0, 3, 10, 30 MG/KG/D FOR 80 WK IN WATER (STUDY DURATION: 80 WK), Dose: 0, 3, 10, 30 MG/KG/D FOR 80 WK IN WATER (STUDY DURATION: 80 WK)",inactive; negative
C#CCN1CC(=O)N(COC(=O)C2C(C=C(C)C)C2(C)C)C1=O (stereo not drawn),carcinogen call,"Species: Mouse, Strain/Sex: Crj:CD-1 (ICR)/Female (51/Group), Route: Oral, Dose: 0, 100, 3500, 7000 ppm of 92.9% imiprothrin in diet for 78 wk, study duration 78 wk, Dose: 0, 100, 3500, 7000 ppm of 92.9% imiprothrin in diet for 78 wk, study duration 78 wk",inactive; negative
same,carcinogen call,"Species: Mouse, Strain/Sex: Crj:CD-1 (ICR)/Male (51/Group), Route: Oral, Dose: 0, 100, 3500, 7000 ppm of 92.9% imiprothrin in diet for 78 wk, study duration 78 wk, Dose: 0, 100, 3500, 7000 ppm of 92.9% imiprothrin in diet for 78 wk, study duration 78 wk",inactive; negative
same,carcinogen call,"Species: Rat, Strain/Sex: Sprague-Dawley/Female (50/Group), Route: Oral, Dose: 0, 50, 250, 2500, 5000 ppm of 92.9% imiprothrin in diet for 104 wk, study duration 104 wk, Dose: 0, 50, 250, 2500, 5000 ppm of 92.9% imiprothrin in diet for 104 wk, study duration 104 wk",inactive; negative
same,carcinogen call,"Species: Rat, Strain/Sex: Sprague-Dawley/Male (50/Group), Route: Oral, Dose: 0, 50, 250, 2500, 5000 ppm of 92.9% imiprothrin in diet for 104 wk, study duration 104 wk, Dose: 0, 50, 250, 2500, 5000 ppm of 92.9% imiprothrin in diet for 104 wk, study duration 104 wk",inactive; negative
NNc1nc(-c2ccc([N+](=O)[O-])o2)cs1,carcinogen call,"Species: RAT, Strain/Sex: SPRAGUE-DAWLEY/FEMALE, Route: ORAL, Dose: 0, 0.089% OF DIET FOR 46 WK FOLLOWED BY CONTROL DIET FOR 20 WK FOR A TOTAL DOSE OF 0, 4.2 G (STUDY DURATION: 66 WK), Dose: 0, 0.089% OF DIET FOR 46 WK FOLLOWED BY CONTROL DIET FOR 20 WK FOR A TOTAL DOSE OF 0, 4.2 G (STUDY DURATION: 66 WK), Tumor Site: Type of Lesion: MAMMARY GLAND: ADENOCARCINOMA, MAMMARY GLAND: ADENOFIBROMA OR FIBROADENOMA",active; positive
CC1=C2C(=CO[C@H](C)[C@H]2C)C(=O)C(C(=O)O)=C1O,carcinogen call,"Species: MOUSE, Strain/Sex: DDD/MALE, Route: ORAL, Dose: 0, 100, 200 PPM IN DIET FOR 70 WK (STUDY DURATION: 70 WK), Dose: 0, 100, 200 PPM IN DIET FOR 70 WK (STUDY DURATION: 70 WK)",inactive; negative
same,carcinogen call,"Species: RAT, Route: DIET, Dose: 0, 0.1%, FOR 32 WK, Tumor Site: Type of Lesion: KIDNEY: ADENOMA, ADENOCARCINOMA",active; positive
same,carcinogen call,"Species: RAT, Strain/Sex: F344/MALE, Route: ORAL, Dose: 0.1% IN DIET FOR 80 WK, Tumor Site: Type of Lesion: KIDNEY: CLEAR CELL ADENOMA",active; positive
CC/C(C)=N\O,carcinogen call,"Species: MOUSE, Strain/Sex: CD-1/FEMALE, Route: INHALATION, Dose: 0, 15, 75, 374 PPM 6 HR/D 5 D/WK FOR 26 MO (STUDY DURATION: 26 MO), Dose: 0, 15, 75, 374 PPM 6 HR/D 5 D/WK FOR 26 MO (STUDY DURATION: 26 MO)",inactive; negative
same,carcinogen call,"Species: MOUSE, Strain/Sex: CD-1/MALE, Route: INHALATION, Dose: 0, 15, 75, 374 PPM 6 HR/D 5 D/WK FOR 26 MO (STUDY DURATION: 26 MO), Dose: 0, 15, 75, 374 PPM 6 HR/D 5 D/WK FOR 26 MO (STUDY DURATION: 26 MO), Tumor Site: Type of Lesion: LIVER: CARCINOMA, ADENOMA OR CARCINOMA",active; positive
same,carcinogen call,"Species: RAT, Strain/Sex: F344/FEMALE, Route: INHALATION, Dose: 0, 15, 75, 374 PPM 6 HR/D 5 D/WK FOR 26 MO (STUDY DURATION: 26 MO), Dose: 0, 15, 75, 374 PPM 6 HR/D 5 D/WK FOR 26 MO (STUDY DURATION: 26 MO)",inactive; negative
same,carcinogen call,"Species: RAT, Strain/Sex: F344/MALE, Route: INHALATION, Dose: 0, 15, 75, 374 PPM 6 HR/D 5 D/WK FOR 26 MO (STUDY DURATION: 26 MO), Dose: 0, 15, 75, 374 PPM 6 HR/D 5 D/WK FOR 26 MO (STUDY DURATION: 26 MO), Tumor Site: Type of Lesion: LIVER: ADENOMA, CARCINOMA, ADENOMA OR CARCINOMA",active; positive
CC1CC2OC2CC1COC(=O)C1CC2OC2CC1C (stereo not drawn),carcinogen call,"Species: MOUSE, Route: DERMAL, Tumor Site: Type of Lesion: INTEGUMENTARY SYSTEM (SKIN)",active; positive
O[C@@H]1C=Cc2c(ccc3cc4ccc5ccccc5c4nc23)[C@H]1O,carcinogen call,"Species: MOUSE, Strain/Sex: CD-1/FEMALE, Route: INTRAPERITONEAL, Dose: 0, 175 NMOL (TOTAL DOSE) ADMINISTERED AS 1/7 OF DOSE WITHIN 24 HR AFTER BIRTH, 2/7 OF DOSE AT 8 D OLD, 4/7 OF DOSE AT 15, Tumor Site: Type of Lesion: LUNG: TUMOR",active; positive
same,carcinogen call,"Species: MOUSE, Strain/Sex: CD-1/MALE, Route: INTRAPERITONEAL, Dose: 0, 175 NMOL (TOTAL DOSE) ADMINISTERED AS 1/7 OF DOSE WITHIN 24 HR AFTER BIRTH, 2/7 OF DOSE AT 8 D OLD, 4/7 OF DOSE AT 15, Tumor Site: Type of Lesion: LIVER: TUMOR, LUNG: TUMOR",active; positive
C=CC=O,carcinogen call,"Species: MOUSE, Strain/Sex: B6C3F1/FEMALE, Route: INTRAPERITONEAL, Dose: 0, 75 NMOL TOTAL DOSE, 1/3 AND 2/3 OF THE TOTAL DOSE ADMINISTERED AT 8 AND 15 DAYS OF AGE RESPECTIVELY, ANIMALS TERMINAT",inactive; negative
same,carcinogen call,"Species: MOUSE, Strain/Sex: B6C3F1/FEMALE, Route: INTRAPERITONEAL, Dose: 0, 150 NMOL TOTAL DOSE, 1/3 AND 2/3 OF THE TOTAL DOSE ADMINISTERED AT 8 AND 15 DAYS OF AGE RESPECTIVELY, ANIMALS TERMINA",inactive; negative
same,carcinogen call,"Species: MOUSE, Strain/Sex: B6C3F1/MALE, Route: INTRAPERITONEAL, Dose: 0, 75 NMOL TOTAL DOSE, 1/3 AND 2/3 OF THE TOTAL DOSE ADMINISTERED AT 8 AND 15 DAYS OF AGE RESPECTIVELY, ANIMALS TERMINAT",inactive; negative
same,carcinogen call,"Species: MOUSE, Strain/Sex: B6C3F1/MALE, Route: INTRAPERITONEAL, Dose: 0, 150 NMOL TOTAL DOSE, 1/3 AND 2/3 OF THE TOTAL DOSE ADMINISTERED AT 8 AND 15 DAYS OF AGE RESPECTIVELY, ANIMALS TERMINA",inactive; negative
same,carcinogen call,"Species: MOUSE, Strain/Sex: CD-1/FEMALE, Route: GAVAGE, Dose: 0, 0.5, 2, 4.5 MG/KG (STABILIZED WITH 0.25%-0.3% HYDROQUINONE) 1/D FOR 18 MO (STUDY DURATION: 18 MO), Dose: 0, 0.5, 2, 4.5 MG/KG (STABILIZED WITH 0.25%-0.3% HYDROQUINONE) 1/D FOR 18 MO (STUDY DURATION: 18 MO)",inactive; negative
same,carcinogen call,"Species: MOUSE, Strain/Sex: CD-1/MALE, Route: GAVAGE, Dose: 0, 0.5, 2, 4.5 MG/KG (STABILIZED WITH 0.25%-0.31 HYDROQUINONE) 1/D FOR 18 MO (STUDY DURATION: 18 MO), Dose: 0, 0.5, 2, 4.5 MG/KG (STABILIZED WITH 0.25%-0.31 HYDROQUINONE) 1/D FOR 18 MO (STUDY DURATION: 18 MO)",inactive; negative
same,carcinogen call,"Species: RAT, Strain/Sex: F344/FEMALE, Route: ORAL, Dose: 0, 625 MG/L IN DRINKING WATER 5 D/WK FOR 100 WK (STUDY DURATION: 130 WK)",inactive; negative
same,carcinogen call,"Species: RAT, Strain/Sex: F344/MALE, Route: INTRAPERITONEAL, Dose: 0, 2 MG/KG 2/WK FOR 9 WK THEN 1.5 MG/KG ONCE IN WK 4 THEN 2/WK FOR 7 WK FOLLOWED BY 1 MG/KG ONCE IN WK 12, TWICE IN WK 1",inactive; negative
same,carcinogen call,"Species: RAT, Strain/Sex: F344/MALE, Route: ORAL, Dose: 0, 100, 250, 625 MG/L IN DRINKING WATER 5 D/WK FOR UP TO 120 WK (STUDY DURATION: 130 WK), Dose: 0, 100, 250, 625 MG/L IN DRINKING WATER 5 D/WK FOR UP TO 120 WK (STUDY DURATION: 130 WK)",inactive; negative
same,carcinogen call,"Species: RAT, Strain/Sex: SPRAGUE-DAWLEY/FEMALE, Route: GAVAGE, Dose: 0, 0.05, 0.5, 2.5 MG/KG/D IN WATER FOR 102 WK (STUDY DURATION: 24 MO), Dose: 0, 0.05, 0.5, 2.5 MG/KG/D IN WATER FOR 102 WK (STUDY DURATION: 24 MO)",inactive; negative
same,carcinogen call,"Species: RAT, Strain/Sex: SPRAGUE-DAWLEY/MALE, Route: GAVAGE, Dose: 0, 0.05, 0.5, 2.5 MG/KG/D IN WATER FOR 102 WK (STUDY DURATION: 24 MO), Dose: 0, 0.05, 0.5, 2.5 MG/KG/D IN WATER FOR 102 WK (STUDY DURATION: 24 MO)",inactive; negative

# — PubChem BioAssay AID1259411 (Chemical Carcinogenesis Research Information System (CCRIS), 2018)
